Test results published in the NIST ThermoML archive (doi:10.1021/je100069q).
± gives the expanded uncertainty stated by the source.

Settings: 101.33 kPa, Liquid

Row | SMILES | mass density (293.15 K) [kg/m3] | mass density (313.15 K) [kg/m3] | other results
1 | CCc1ccccc1 [ethylbenzene] |  |  | mass density (298.15 K): 862.59 ± 0.3 kg/m3
2 | Cc1cccc(O)c1 [3-methylphenol] | 1033.85 ± 0.28 |  | 
3 | Oc1ccccc1 [phenol] |  | 1058.3 ± 0.35 | 
4 | Cc1ccccc1O [2-methylphenol] |  |  | mass density (308.15 K): 1032.73 ± 0.61 kg/m3
5 | Cc1ccccc1 [toluene] | 866.78 ± 0.31 |  | 
6 | Cc1ccc(O)cc1 [4-methylphenol] |  | 1018.8 ± 0.27 | 
